Source: US11377473B2, “Albumin-binding prodrugs of auristatin E derivatives” (priority 2017, dated 2022)

Legend:
[1] = Accelerated degradation of lyophilized auristatin formulations; assay type: physicochemical; details: 55° C. for up to 264 hours
Procedure: The APIs were dissolved in the lyophilization buffer which contained 2-HPβCD, 10 mM sodium citrate pH 6.2, 50% tert-butyl alcohol (V/V)). For the AE-Keto derivatives 2% (w/v) 2-HPβCD was employed to dissolve the AE-Keto APIs at 1.27 mM concentration; for the AE-Ester derivatives 4% (w/v) 2-HPβCD was used to dissolve the APIs at 1.05 mM concentration. The dissolved APIs were sterile filtered using an Acrodisc Fluorodyne II syringe filter (0.2 μm). The sterile solutions were pipetted into lyophilization vials which were then partially sealed using a rubber stopper. The vials were subsequently placed into the freeze dryer for lyophilization. The vials were frozen on the freeze dryer shelf at −40° C. for 2 hours, after 2 hours main drying was started. Main drying was run for 26 hours, parameters: shelf temperature −20° C., vacuum 0.0048 mbar. After main drying, final drying was initiated. Final drying was run for 16 hours, parameters: shelf temperature 20° C., vacuum 0.0047 mbar. […]
The sealed vials were incubated at 55° C. using an Eppendorf Thermomixer C with a plate insert (Smartblock) and lid. […] Stability of the APIs was determined by HPLC (method 8, 254 nm for AE-Keto derivatives, 310 nm for AE-Ester derivatives). The percentage of maleimide hydrolysis at each time point was determined by comparison to the AUC for each API at time 0.

[2] = Dose finding studies
Procedure: Female immunodeficient NMRI nude mice, from Janvier, France, received 5×10^6-10^7 cultured cancer cell in buffer/Matrigel (1:1) inoculated subcutaneously, until tumors were palpable and had reached the desired volume (for xenograft studies).
Animals were kept in cages (Macrolon Type-II wire-mesh) with temperature maintained at 22±1° C., relative humidity of 50 f 10% and an air change rate of 60-fold per hour. Mice were kept under a 12-hour light/12-hour dark, artificial light cycle. The animals were fed with autoclaved Ssniff NM (Soest, Germany), and had access to sterile filtered and acidified (pH 4.0) tap water which was changed twice weekly. Feed and water were provided ad libitum. […] The health of the animals was examined at the start of the experiment and twice per day during the experiment. Identification used: ear mark and cage labels. Starting on day 0, animals were weighed two or three times per week and mean body weight per group was related to the initial value in percent to calculate the body weight change (BWC). Tumor diameters were determined by a two-dimensional measurement with a caliper on the day of randomization (Day 0) and then twice or three times per week. Tumor volumes were calculated according to the following equation:
Tumor Vol [mm^3]=1 [mm]×w^2 [mm^2]×0.5, where “1” is the length and “w” is width of the tumor. The relative volume of an individual tumor on day X (RTVx) was calculated by dividing the absolute individual tumor volume [mm^3] of the respective tumor on day X (Tx) by the absolute individual tumor volume of the same tumor on the day of randomization multiplied by 100%. Schedules were applied to the extent that animal welfare policies allow. Termination of individual mice was carried out at tumor volume >1500 mm^3 (unilateral) or when ulceration was observed. Statistical comparison was performed with the Mann-Whitney U-test. Dose Finding Studies of Auristatin E and the Albumin-Binding Auristatin E Derivatives AE-Keto-Sulf07 and AE-Ester-Sulf07.
Stock solutions were prepared as follows: • 1) 3 mice per group, 26 g average weight on day of randomization: 0.3, 0.6 or 1.2 mg/kg dose auristatin E TFA salt (AE equiv.) dosed once weekly for 4 weeks on day 0, 6, 13, 20≡0.35-1.41 mg/kg≡7.1-28.3 μg/20 g mouse. Sample preparation: 8.5 mg weighed in a 50 mL vial dissolved in 30.0 mL 25/75 tert-butanol/10 mM sodium phosphate buffer, 5% sucrose—pH 7.0; 0.2-0.8 mL were aliquoted in 2 mL vials depending on the final desired final dose. The vials were frozen for 1 h at −40° C. and lyophilized at −20° C. over ˜36 h and then stoppered. On day of injection, the lyophilized samples were reconstituted with 0.8 mL of 10 mM sodium phosphate buffer, 20% propylene glycol—pH 7.0. • 2) 3 mice per group, 26 g average weight on day of randomization: 1.2 and 2.4 mg/kg AE-Keto-Sulf07 (AE equiv.) dosed twice weekly for 4 weeks ≡1.94-3.87 mg/kg≡38.7 and 77.4 μg/20 g mouse. Sample preparation: 11.0 mg weighed in a 30 mL vial dissolved in 14.2 mL 50/50 tert-butanol/10 mM sodium phosphate buffer, 5% sucrose—pH 7.0; 0.4-0.8 mL were aliquoted in 2 mL vials depending on the final desired final dose. The vials were frozen for 1 h at −40° C. and lyophilized at −20° C. over ˜36 h and then stoppered. On the day of injection, the lyophilized samples were reconstituted with 0.8 mL of 10 mM sodium phosphate buffer, 20% propylene glycol—pH 7.0. • 3) 3 mice per group, 26 g average weight on day of randomization: 1.2, 1.6 or 2.0 mg/kg AE-Ester-Sulf07 (AE equiv.) dosed twice weekly for 4 weeks on day≡2.18-3.64 mg/kg≡43.7-72.8 μg/20 g mouse. Sample preparation: 19.2 mg weighed in a 30 mL vial dissolved in 26.3 mL 50/50 tert-butanol/10 mM sodium phosphate buffer, 5% sucrose—pH 7.0; 0.48-0.8 mL were aliquoted in 2 mL vials depending on the final desired final dose. The vials were frozen for 1 h at −40° C. and lyophilized at −20° C. over ˜36 h and then stoppered.

Molecule | stability under accelerated degradation conditions (maleimide hydrolysis) [1] | side effect compared with the other groups ([2]; 4.0 mg/kg once weekly) | body weight change ([2]; 2.0, 2.2, 2.4 mg/kg twice per week and 4.0, 4.4, 4.8 mg/kg once per week over four weeks) | appearance of skin irritation ([2]; all groups: 2.0, 2.2, 2.4 mg/kg twice per week and 4.0, 4.4, 4.8 mg/kg once per week) | tolerability ([2]; up to 2.0 mg/kg dosed twice weekly for four weeks) | tolerability ([2]; 6.5 mg/kg biweekly in later xenograft studies, treatment stopped after five injections) | tolerability ([2]; all doses tested (1.2 and 2.4 mg/kg), injected eight times on a biweekly schedule) | safe dose ([2]; biweekly schedule) | tolerability ([2]; 0.3 mg/kg once weekly for 4 weeks) | tolerability ([2]; 0.6 mg/kg once weekly, no animal survived after the second injection) | tolerability ([2]; 1.2 mg/kg once weekly, no animal survived after the first injection) | maximum tolerated dose (MTD) ([2]; injected biweekly for four weeks (total of eight injections))
2-(2-(1-(4-(((1S,2R)-2-((2R,3R)-3-((S)-1-((3R,4R,5S)-4-((S)-2-((R)-2-(dimethylamino)-3-methylbutanamido)-N,3-dimethylbutanamido)-3-methoxy-5-methylheptanoyl)pyrrolidin-2-yl)-3-methoxy-2-methylpropanamido)-1-phenylpropoxy)carbonyl)phenyl)ethylidene)hydrazine-1-carbonyl)-5-(6-(2,5-dioxo-2,5-dihydro-1H-pyrrol-1-yl)hexanamido)benzenesulfonic acid [AE-Ester-Sulf07] | more stable than the respective EMCH derivatives | lowest side effect | No body weight change | 9 to 14 days | no evident sign of toxicity |  |  |  |  |  |  | 
CC[C@H](C)[C@@H]([C@@H](CC(=O)N1CCC[C@H]1[C@H](OC)[C@@H](C)C(=O)N[C@H](C)C(=NNC(=O)c1ccc(NC(=O)CCCCCN2C(=O)C=CC2=O)cc1S(=O)(=O)O)c1ccccc1)OC)N(C)C(=O)[C@@H](NC(=O)[C@H](C(C)C)N(C)C)C(C)C [AE-Keto-Sulf07, 2-(2-((R)-2-((2R,3R)-3-((S)-1-((3R,4S,5S)-4-((S)-2-((S)-2-(dimethylamino)-3-methylbutanamido)-N,3-dimethylbutanamido)-3-methoxy-5-methylheptanoyl)pyrrolidin-2-yl)-3-methoxy-2-methylpropanamido)-1-phenylpropylidene)hydrazine-1-carbonyl)-5-(6-(2,5-dioxo-2,5-dihydro-1H-pyrrol-1-yl)hexanamido)benzenesulfonic acid] | more stable than the respective EMCH derivatives |  |  |  |  | above the MTD | well tolerated | 4.5 mg/kg |  |  |  | 
CC[C@H](C)[C@@H]([C@@H](CC(=O)N1CCC[C@H]1[C@H](OC)[C@@H](C)C(=O)N[C@H](C)[C@@H](O)c1ccccc1)OC)N(C)C(=O)[C@@H](NC(=O)[C@H](C(C)C)N(C)C)C(C)C [auristatin E] |  |  |  |  |  |  |  |  | well tolerated | high toxicity | high toxicity | 0.3 mg/kg
